In ChEMBL document CHEMBL3120117, “Synthesis and antitumor activity evaluation of chrysin derivatives” (Eur J Med Chem, 2014):

Tests used:
H22 [1] = test: Cytotoxicity against mouse H22 cells assessed as growth inhibition by MTT assay; format: functional, cell-based
H22 [2] = test: Cell cycle arrest in mouse H22 cells assessed as accumulation at G1 phase at 1 mmol/l after 24 hrs by propidium iodide staining based flow cytometry (reference value: 14.38 +/-0.54%); format: functional
H22 [3] = test: Cytotoxicity against mouse H22 cells assessed as growth inhibition by MTT assay relative to chrysin; format: functional
H22 [4] = test: Cell cycle arrest in mouse H22 cells assessed as accumulation at G2/M phase at 1 mmol/l after 24 hrs by propidium iodide staining based flow cytometry (reference value: 15.42 +/-0.33%); format: functional
H22 [5] = test: Cell cycle arrest in mouse H22 cells assessed as accumulation at S phase at 1 mmol/l after 24 hrs by propidium iodide staining based flow cytometry (reference value: 70.21 +/-0.38%); format: functional

SMILES	IC50 (H22 [1]) [mM]	Activity (H22 [2]) [%]	growth inhibition (GI) (H22 [3]) [%]	Activity (H22 [4]) [%]	Activity (H22 [5]) [%]
CCOC(=O)COc1cc(OCC(=O)OCC)c2c(=O)cc(-c3ccccc3)oc2c1	4.03	–	–	–	–
O=C(Oc1cc(O)c2c(=O)cc(-c3ccccc3)oc2c1)c1ccccc1	1.71	–	–	–	–
O=C(Oc1cc(OC(=O)c2ccccc2)c2c(=O)cc(-c3ccccc3)oc2c1)c1ccccc1	3.66	–	–	–	–
CCOC(=O)COc1cc(OC(=O)c2ccccc2)cc2oc(-c3ccccc3)cc(=O)c12	3.22	–	–	–	–
O=C(O)COc1cc(O)cc2oc(-c3ccccc3)cc(=O)c12	2.47	–	–	–	–
CC(=O)Oc1cc(O)c2c(=O)cc(-c3ccccc3)oc2c1	4.29	–	–	–	–
CC(=O)Oc1cc(OC(C)=O)c2c(=O)cc(-c3ccccc3)oc2c1 [CHRYSIN DIACETATE]	0.141	6.22	91.56	36.34	57.44
O=c1cc(-c2ccccc2)oc2cc(O)cc(O)c12 [CHRYSIN]	1.67	12.97	–	17.13	69.91
O=C(O)COc1cc(OCC(=O)O)c2c(=O)cc(-c3ccccc3)oc2c1 [FLAVODIC ACID]	3.12	–	–	–	–
